Measured values from patent US20080194585A1, “Fungicidal Pyrazine Derivatives” (priority 2005, published 2008).
Marks after values point to notes of the source that are not given here.

Tests used:
Conditions in all cases: 100 = 100% disease control
Rhizoctonia oryzae = assay: Test G: turf brown patch, preventive spray on creeping bent grass seedlings
Description: (the causal agent of turf brown patch) and incubated in a saturated atmosphere at 27° C. for 24 h, and then moved to a growth chamber at 27° C. for 5 days, after which disease ratings were made.

Septoria nodorum = assay: Test H: wheat glum blotch, preventive spray on wheat seedlings
Description: (the causal agent of wheat glum blotch) and incubated in a saturated atmosphere at 20° C. for 48 h, and then moved to a growth chamber at 22° C. for 5 days, after which disease ratings were made.

Pythium aphanidermatum = assay: Test A: bluegrass pythium blight, preventive spray on bluegrass seedlings
Septoria tritici = assay: Test J: wheat leaf blotch, preventive spray on wheat seedlings; format: in vivo
Excerpt: A dash (-) indicates no test results.

fusarium graminearium = assay: Test I: wheat head scab, preventive spray on wheat seedlings
Description: (the causal agent of wheat head scab) and incubated in a saturated atmosphere at 20° C. for 72 h, and then moved to a growth chamber at 22° C. for 5 days, after which disease ratings were made.

Phytophthora infestans = assay: whole plant or invertebrate; format: in vivo
[1] = system: Erysiphe graminis f. sp. tritici; assay: Test L: wheat powdery mildew, preventive spray on wheat seedlings
Botrytis cinerea = assay: Test E: tomato botrytis, preventive spray on tomato seedlings
Plasmopara viticola = assay: Test D: grape downy mildew, spray after inoculation of grape seedlings; format: in vivo
Excerpt: Upon removal, disease ratings were made. […] A dash (-) indicates no test results.

[2] = system: Puccinia recondita f. sp. tritici; assay: Test K: wheat leaf rust, preventive spray on wheat seedlings
[3] = system: Colletotrichum orbiculare; assay: Test B: cucumber Colletotrichum anthracnose, preventive spray on cucumber seedlings
[4] = 40 ppm (marked *), 0 = no control
[5] = 200 ppm, 0 = no control relative to controls

Structure (SMILES)	Test G disease control rating (Rhizoctonia oryzae; [4])	Test H disease control rating (Septoria nodorum; [4])	Test A disease control rating (Pythium aphanidermatum; [4])	Test J disease control rating (Septoria tritici; [4])	Test I disease control rating (fusarium graminearium; [4])	Test F disease control rating (Phytophthora infestans; [4])	Test L disease control rating [1, 4]	Test E disease control rating (Botrytis cinerea; [4])	Test D disease control rating (Plasmopara viticola; [4])	Test K disease control rating [2, 4]	Test B disease control rating [3, 4]	Test G disease control rating (Rhizoctonia oryzae; [5])	Test A disease control rating (Pythium aphanidermatum; [5])	Test J disease control rating (Septoria tritici; [5])	Test I disease control rating (fusarium graminearium; [5])	Test F disease control rating (Phytophthora infestans; [5])	Test L disease control rating [1, 5]	Test D disease control rating (Plasmopara viticola; [5])	Test H disease control rating (Septoria nodorum; [5])	Test E disease control rating (Botrytis cinerea; [5])	other results
Cc1ccn(-c2nc(Cl)c(-c3c(F)cccc3F)n(-c3cccc(F)c3F)c2=O)n1 [compound 381]	16* %	99* %	0* %	100* %	0* %	0* %	76* %	100* %	0* %	100* %	78* %	–	–	–	–	–	–	–	–	–	–
O=c1c(-n2cccn2)nc(Cl)c(-c2c(F)cccc2F)n1-c1ccc(F)cc1 [compound 382]	–	99* %	0* %	100* %	0* %	0* %	50* %	99* %	0* %	100* %	63* %	16%	–	–	–	–	–	–	–	–	–
Cc1ccn(-c2nc(Cl)c(-c3c(F)cccc3F)n(-c3ccc(F)cc3)c2=O)n1 [compound 383]	49* %	100* %	0* %	100* %	0* %	0* %	99* %	99* %	0* %	100* %	63* %	–	–	–	–	–	–	–	–	–	–
O=c1c(-n2cccn2)nc(Cl)c(-c2c(F)cccc2F)n1-c1cc(F)cc(F)c1 [compound 384]	47* %	99* %	0* %	98* %	0* %	0* %	59* %	99* %	15* %	100* %	90* %	–	–	–	–	–	–	–	–	–	–
Cc1ccn(-c2nc(Cl)c(-c3c(F)cccc3F)n(-c3cc(F)cc(F)c3)c2=O)n1 [compound 385]	78* %	99* %	0* %	100* %	0* %	0* %	89* %	99* %	0* %	100* %	99* %	–	–	–	–	–	–	–	–	–	–
O=c1c(-n2cccn2)nc(Cl)c(-c2c(F)cccc2F)n1-c1ccc(F)cc1F [compound 386]	99* %	100* %	0* %	96* %	0* %	0* %	68* %	99* %	57* %	100* %	87* %	–	–	–	–	–	–	–	–	–	–
Cc1ccn(-c2nc(Cl)c(-c3c(F)cccc3F)n(-c3ccc(F)cc3F)c2=O)n1 [compound 387]	60* %	89* %	0* %	99* %	0* %	0* %	0* %	99* %	0* %	100* %	0* %	–	–	–	–	–	–	–	–	–	–
CC(C)Cn1c(-c2c(Cl)cc(C(F)(F)F)cc2Cl)c(Cl)nc(-n2cccn2)c1=O [compound 391]	0* %	0* %	0* %	33* %	0* %	0* %	0* %	0* %	0* %	88* %	0* %	–	–	–	–	–	–	–	–	–	–
CCC(C)Cn1c(-c2c(F)cc(F)cc2F)c(Cl)nc(C(=O)NOC)c1=O (stereo not shown) [compound 417]	0* %	60* %	–	–	–	–	–	99* %	–	100* %	71* %	–	0%	0%	0%	93%	76%	86%	–	–	–
CC(=O)Nc1nc(Cl)c(-c2c(F)cccc2F)n(CC(C)C)c1=O [compound 423]	–	–	–	46* %	–	–	–	–	–	–	–	95%	0%	–	60%	0%	97%	0%	0%	100%	Test K disease control rating [2, 5]: 97%; Test B disease control rating [3, 5]: 0%
Cc1nc(C#N)c(=N)n(CC(C)C)c1-c1ccc(F)cc1F [compound 425]	–	–	–	–	–	–	–	–	–	–	–	0%	0%	3%	0%	16%	0%	0%	0%	0%	Test K disease control rating [2, 5]: 0%; Test B disease control rating [3, 5]: 0%
Cc1nc(C(N)=O)c(=N)n(CC(C)C)c1-c1ccc(F)cc1F [compound 427]	–	–	–	–	–	–	–	–	–	–	–	0%	0%	0%	0%	0%	0%	0%	0%	0%	Test K disease control rating [2, 5]: 0%; Test B disease control rating [3, 5]: 0%
CCC(C)Cn1c(-c2ccc(F)cc2F)c(C)nc(C(N)=O)c1=N (stereo not shown) [compound 428]	–	–	–	–	–	–	–	–	–	–	–	0%	0%	87%	0%	0%	0%	0%	0%	49%	Test K disease control rating [2, 5]: 95%; Test B disease control rating [3, 5]: 0%
CC(C)Cn1c(-c2ccc(F)cc2F)c(F)nc(C(N)=O)c1=N [compound 429]	–	–	–	–	–	–	–	–	–	–	–	0%	88%	0%	62%	0%	0%	0%	0%	0%	Test K disease control rating [2, 5]: 0%; Test B disease control rating [3, 5]: 0%
